Reference: patent US12697315B2, “Treatment for interstitial lung disease” (United Therapeutics Corporation, priority 2020, dated 2026)

What was measured:
[1] = system: patients with interstitial lung disease and pulmonary hypertension; conditions: human, in vivo, 16 weeks
Excerpt: Safety assessments consisted of the development of AEs, vital signs, clinical laboratory parameters, ECG parameters, hospitalizations due to cardiopulmonary indications, exacerbations of underlying lung disease, and oxygenation.
Safety end points included adverse events, abnormal laboratory results, oxygenation as measured by pulse oximetry (Spo2) and supplemental oxygen requirement, changes in pulmonary function test results, hospitalization for a cardiopulmonary indication, and investigator-reported exacerbations of underlying lung disease, defined as acute, clinically significant respiratory deterioration characterized by evidence of new widespread alveolar abnormality.

[2] = system: patients with interstitial lung disease and pulmonary hypertension; assay: St. George's Respiratory Questionnaire, INCREASE; format: in vivo, human
Protocol: (§1) The 6-minute walk test was performed and laboratory data were obtained at baseline and at weeks 4, 8, 12, and 16, or at the time of early discontinuation of treprostinil or placebo. Each 6-minute walk test was performed 10 to 60 minutes after the most recent dose of active drug or placebo, which is the time of peak plasma treprostinil exposure. A trough test was performed at week 15 at least 4 hours after the participant received a dose of treprostinil or placebo and at least 24 hours before the week 16 test. Pulse oximetry was performed immediately before, during, and after each 6-minute walk test. Measurement of N-terminal pro-B-type natriuretic peptide (NT-proBNP) levels and pulmonary function tests were performed at baseline and at weeks 8 and 16 (or at early discontinuation) after the patients recovered from the 6-minute walk test. The St. George's Respiratory Questionnaire (SGRQ), a quality-of-life measure, was completed at baseline and week 16 or at the time of early discontinuation.
The St. George's Respiratory Questionnaire has a range of results from 0 to 100, with higher scores indicating greater impairment and with a minimum clinically important difference of 4 points.
The changes from baseline in Total Score and each of the 3 domain scores were analyzed by parametric ANCOVA with no imputation for missing data.

[3] = system: patients with interstitial lung disease and pulmonary hypertension; assay: Occurrence of / time to clinical worsening, INCREASE; format: in vivo, human
Protocol: (§2) The primary end point of the trial was the difference between the two groups in the change in peak 6-minute walk distance from baseline to week 16. Secondary efficacy end points were analyzed in the following hierarchical testing order: the change in NT-proBNP level from baseline to week 16, the time to clinical worsening, the change in 6-minute walk distance at peak plasma treprostinil level at week 12, and the change in 6-minute walk distance at trough treprostinil level at week 15. The time to clinical worsening was evaluated from the time of randomization until the patient's withdrawal from the trial and was defined as the time until the occurrence of any one of the following events: hospitalization for a cardiopulmonary indication, a decrease in 6-minute walk distance greater than 15% from baseline that was directly related to the disease under study at two consecutive visits and at least 24 hours apart, death from any cause, or lung transplantation.

[4] = system: patients with interstitial lung disease and pulmonary hypertension; assay: Distance saturation product, INCREASE; format: in vivo, human
Protocol: Change in distance saturation product is the product of distance walked and lowest SpO2 recorded during the 6-minute walk test.^7 Change from baseline to Week 16 in distance saturation product was analyzed by parametric ANCOVA with no imputation for missing distance saturation product values.

NT-proBNP = assay: Plasma NT-proBNP level, INCREASE; format: in vivo, human; conditions: for NT-proBNP treatment ratio (ratio of ratios between treatment groups): vs placebo, week 16
Protocol: (§3) We enrolled patients with interstitial lung disease and pulmonary hypertension (documented by right heart catheterization) in a multicenter, randomized, double-blind, placebo-controlled, 16-week trial. Patients were assigned in a 1:1 ratio to receive inhaled treprostinil, administered by means of an ultrasonic, pulsed-delivery nebulizer in up to 12 breaths (total, 72 μg) four times daily, or placebo. The primary efficacy end point was the difference between the two treatment groups in the change in peak 6-minute walk distance from baseline to week 16. Secondary end points included the change in N-terminal pro-B-type natriuretic peptide (NT-proBNP) level at week 16 and the time to clinical worsening.
as §1, §2

[5] = system: patients with interstitial lung disease and pulmonary hypertension; assay: 6-minute walk test, INCREASE; format: in vivo, human
Protocol: as §3, §1, §2
For the primary efficacy analysis, the change in 6-minute walk distance was analyzed by mixed-model repeated-measures methods, under the assumption that missing data were missing at random. The model included the change from baseline to peak 6-minute walk distance as the dependent variable, with treatment, week, and treatment-by-week interaction as fixed effects, and the baseline 6-minute walk distance as a covariate. A sensitivity analysis for the primary end point was performed by means of a multiple imputation approach with a multivariate normal imputation model according to the Markov chain Monte Carlo method. The imputation model included treatment group, all scheduled visits, the patient's sex, and the patient's age at randomization. If the result for the primary efficacy end point was significant, secondary efficacy end points were to be evaluated according to a hierarchical testing procedure. Confidence intervals have not been adjusted for multiplicity and can-not be used to infer definitive treatment effects for secondary efficacy end points.

[6] = vs placebo, listed as Inhaled Treprostinil
[7] = vs placebo, listed as inhaled treprostinil

## CCCCC[C@H](O)CC[C@@H]1[C@H]2Cc3cccc(OCC(=O)O)c3C[C@H]2C[C@H]1O [Inhaled treprostinil, treprostinil]
[1]
  Serious adverse event: Rhinovirus infection: 1 n
[2]; Week 16
  St. George's Respiratory Questionnaire, Change from Baseline, Median: −0.70
  St. George's Respiratory Questionnaire, Value, Median: 56.30
[2]; Week 16, ANCOVA
  St. George's Respiratory Questionnaire, Change from Baseline, LS Mean (SE): −1.30 (0.87)
[2]; Week 16, n 143
  St. George's Respiratory Questionnaire, Change from Baseline, Mean (SD): −1.25 (10.99)
  St. George's Respiratory Questionnaire, Value, Mean (SD): 55.91 (17.07)
[2]; week 16, vs placebo
  St. George's Respiratory Questionnaire, LS Mean Difference: −1.18, (1.25) (−3.63, 1.28)
  between-group difference in patient-reported quality of life assessed with the SGRQ: no significant between-group difference
[3]; 16 weeks
  patients with clinical worsening: 22.7%
  patients with first occurrence of clinical worsening that involved hospitalization for a cardiopulmonary indication: 11.0%
[3]; 16 weeks, N = 163
  Clinical worsening: Death from any cause: 4 (2.5) no. (%)
  Clinical worsening: Decrease in 6 minute walk distance of >15% from baseline: 13 (8.0) no. (%)
  Clinical worsening: Hospitalization for cardiopulmonary indication: 18 (11.0) no. (%)
  Clinical worsening: Lung transplantation: 2 (1.2) no. (%)
  Occurrence of clinical worsening: Any event: 37 (22.7) no. (%)
[3]; vs placebo, Cox proportional-hazards model, listed as inhaled treprostinil
  Occurrence of clinical worsening, hazard ratio: 0.61
[4]; ANCOVA
  Distance saturation product, Week 16 Change from Baseline, LS Mean (SE): 7.2 (4.5) m %
[4]; n 118
  Distance saturation product, Week 16 Change from Baseline, Mean (SD): 7.607 (45.680) m %
  Distance saturation product, Week 16 Change from Baseline, Median: 8.385 m %
[4]; week 16, vs placebo
  Distance saturation product, LS Mean Difference (SE): 11.51 (6.5), 95% CI (−1.33, 24.35) m %
  between-group difference in the distance-saturation product: no significant between-group difference
NT-proBNP; 156 patients
  Change in plasma concentration of NT-proBNP from baseline to wk 16, Mean (±SD) change: -396.35 ± 1904.90 pg/mL
  Change in plasma concentration of NT-proBNP from baseline to wk 16, Median: -22.65 pg/mL
NT-proBNP; Week 16
  reduction in NT-proBNP compared to placebo: 42%
  reduction in NT-proBNP levels from baseline: 15%
NT-proBNP; listed as Inhaled Treprostinil
  NT-proBNP treatment ratio (ratio of ratios between treatment groups): ±0.58 ± 0.06
NT-proBNP; listed as inhaled treprostinil
  NT-proBNP treatment ratio (ratio of ratios between treatment groups): 0.58
NT-proBNP; wk 16, LS mean of log-transformed data ± SE
  NT-proBNP, Ratio to baseline: 0.85 ± 0.06
[5]; LS mean ± SE, MMRM
  Change in peak 6-minute walk distance from baseline to wk 16: 21.08 ± 5.12 m
[5]; mean ± SE
  Least-squares mean change in peak 6-minute walk distance from baseline to wk 12: 18.77 ± 4.99 m
  Least-squares mean change in trough 6-minute walk distance from baseline to wk 15: 9.3 ± 5.5 m
[5]; vs placebo, MMRM, listed as Inhaled Treprostinil
  Treatment effect, least-squares mean difference in change in peak 6-minute walk distance, baseline to wk 16: 31.12 ± 7.25 m
[5]; vs placebo, MMRM, listed as inhaled treprostinil
  Treatment effect, least-squares mean difference in change in peak 6-minute walk distance, baseline to wk 16: 31.12 m
[5]; vs placebo, MMRM, listed as treprostinil
  Treatment effect, least-squares mean difference in change in peak 6-minute walk distance, baseline to wk 16: 31.12 m
[5]; [6]
  Treatment effect, least-squares mean difference in peak 6-minute walk distance, baseline to wk 12: 31.29 ± 7.07 m
  Treatment effect, least-squares mean difference in trough 6-minute walk distance, baseline to wk 15: 21.99 ± 7.7 m
[5]; [7]
  Treatment effect, least-squares mean difference in peak 6-minute walk distance, baseline to wk 12: 31.29 m
  Treatment effect, least-squares mean difference in trough 6-minute walk distance, baseline to wk 15: 21.99 m
[5]; vs placebo, multiple imputation, Markov chain Monte Carlo
  between-group difference in change from baseline in peak 6-minute walk distance at week 16: 30.97 m
